One data set in a line: water solubility. The format is physicochemical. The settings on record: compound I and/or its salts and/or hydrates.
The test system of data set [1] is gram-negative and gram-positive bacteria. The settings on record: against gram-negative and gram-positive bacteria; relative to sparfloxacin and ciprofloxacin; Drugs of the Future 1997, 22 (2): 109/113; cited from earlier work.
Data set [2] can be described thus: absorption behaviour in the lower sections of the intestine. The format is in vivo. The settings on record: in contrast to ciprofloxacin. The text has this:
It was therefore the object of the present invention to develop a drug formulation of the compound I and pharmaceutically tolerable salts thereof and/or their hydrates which meets the requirements described above. […] Only this surprising absorption behaviour of moxifloxacin, which is different from known quinolonecarboxylic acid antibiotics, opens up any possibility of developing a retard formulation of moxifloxacin.

Consider `COc1c(N2C[C@@H]3CCCN[C@@H]3C2)c(F)cc2c(=O)c(C(=O)O)cn(C3CC3)c12` [compound I, 1-cyclopropyl-7-([S,S]-2,8-diazabicyclo[4.3. 0]non-8-yl)-6-fluoro-1,4-dihydro-8-methoxy-4-oxo-3-quino-lonecarboxylic acid], for which the solubility in the data set “water solubility” was roughly 24 mg/mL. For the same compound, the antibacterial action result in data set [1] was “frequently significantly better than that of sparfloxacin and ciprofloxacin”. In the case of `COc1c(N2C[C@@H]3CCCN[C@@H]3C2)c(F)cc2c(=O)c(C(=O)O)cn(C3CC3)c12` [compound II], the “absorption in the lower sections of the intestine (colon, rectum)” value in data set [2] is listed as “also absorbed in the lower sections of the intestine (colon, rectum)”.

A word on the solubility: it is how much of the substance goes into solution per volume.

Source of the values: patent publication US6270799A, “Medicament formulation with a controlled release of an active agent” (Bayer Aktiengesellscahft, priority 1997, dated 2001).
